Results published in patent US9670261B2 (Sanofi, priority 2012, dated 2017).
pEC50: −log10 of the molar value. Read-outs that look alike come from different tables or passages of the source. *1 amine or outer side, *2 acyl side, *3 side chain or, on linkers, in order; H or OH if unused. Where a SMILES comes first, the peptide text is derived from it. Side-chain parts run from the residue outwards. [ ]: non-standard residue; d: D form. The star is where a group is joined. γGlu = O=C(O)[C@H](CCC(=O)[*:2])N[*:1]; Stearoyl = CCCCCCCCCCCCCCCCCC(=O)*; Palmitoyl = CCCCCCCCCCCCCCCC(=O)*; Aib = CC(C)(N)C(=O)O

Target: T1, human GLP-1 receptor (Homo sapiens, UniProt P43220)
T1 construct: expressed in transfected cells
T1 sequence (P43220 24-463): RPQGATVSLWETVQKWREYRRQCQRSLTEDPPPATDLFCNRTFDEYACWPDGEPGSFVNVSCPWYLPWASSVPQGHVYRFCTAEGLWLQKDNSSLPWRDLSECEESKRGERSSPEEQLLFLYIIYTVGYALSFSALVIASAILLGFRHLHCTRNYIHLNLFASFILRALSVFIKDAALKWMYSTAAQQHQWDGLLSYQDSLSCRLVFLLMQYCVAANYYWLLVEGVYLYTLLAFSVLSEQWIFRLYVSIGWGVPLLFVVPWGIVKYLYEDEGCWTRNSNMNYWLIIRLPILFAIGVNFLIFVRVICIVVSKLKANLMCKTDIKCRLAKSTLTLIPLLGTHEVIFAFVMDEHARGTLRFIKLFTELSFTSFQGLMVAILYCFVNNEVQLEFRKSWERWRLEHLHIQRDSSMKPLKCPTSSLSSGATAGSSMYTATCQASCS
Test: cAMP response (HTRF) of HEK-293 cells stably expressing human GLP-1 receptor
Format: cell-based
Conditions: read-out: EC50 hGLP-1 R
Description: cAMP content of cells was determined using a kit from Cisbio Corp. (cat. no. 62AM4PEC) based on HTRF (Homogenous Time Resolved Fluorescence). For preparation, cells were split into T175 culture flasks and grown overnight to near confluency in medium (DMEM/10% FBS). Medium was then removed and cells washed with PBS lacking calcium and magnesium, followed by proteinase treatment with accutase (Sigma-Aldrich cat. no. A6964). Detached cells were washed and resuspended in assay buffer (1×HBSS; 20 mM HEPES, 0.1% BSA, 2 mM IBMX) and cellular density determined. They were then diluted to 400000 cells/ml and 25 μl-aliquots dispensed into the wells of 96-well plates. For measurement, 25 μl of test compound in assay buffer was added to the wells, followed by incubation for 30 minutes at room temperature.

CC[C@H](C)[C@H](NC(=O)[C@H](Cc1ccccc1)NC(=O)[C@H](CC(=O)O)NC(=O)[C@H](CCC(N)=O)NC(=O)[C@H](C)NC(=O)[C@H](C)NC(=O)[C@H](CCCNC(=N)N)NC(=O)[C@H](CO)NC(=O)[C@H](CCC(=O)O)NC(=O)[C@H](CC(C)C)NC(=O)[C@H](CCC(N)=O)NC(=O)[C@@H](NC(=O)[C@H](CO)NC(=O)[C@H](CC(C)C)NC(=O)[C@H](CC(=O)O)NC(=O)[C@H](CO)NC(=O)[C@@H](NC(=O)[C@H](Cc1ccccc1)NC(=O)[C@@H](NC(=O)CNC(=O)[C@H](CCC(N)=O)NC(=O)C(C)(C)NC(=O)[C@@H](N)Cc1ccc(O)cc1)[C@@H](C)O)[C@@H](C)O)[C@@H](C)CC)C(=O)N[C@@H](CCC(=O)O)C(=O)N[C@@H](Cc1c[nH]c2ccccc12)C(=O)N[C@@H](CC(C)C)C(=O)N[C@@H](CCCCN)C(=O)N[C@@H](C)C(=O)NCC(=O)NCC(=O)N1CCC[C@H]1C(=O)N[C@@H](CO)C(=O)N[C@@H](CO)C(=O)NCC(=O)N[C@@H](C)C(=O)N1CCC[C@H]1C(=O)N1CCC[C@H]1C(=O)N1CCC[C@H]1C(=O)N[C@@H](CO)C(N)=O [SEQ ID NO: 40, Y-Aib-QGTFTSDLSIQLESRAAQDFIEWLKAGGPSSGAPPPS-NH2, reference compound] (H-Y[Aib]QGTFTSDLSIQLESRAAQDFIEWLKAGGPSSGAPPPS-NH2; N-terminus assumed)
pEC50 (Table 8, functionalized vs non-functionalized position 14): 11.49

CCCCCCCCCCCCCCCCCC(=O)N[C@@H](CCC(=O)NCCCC[C@H](NC(=O)[C@H](CCC(N)=O)NC(=O)[C@@H](NC(=O)[C@H](CO)NC(=O)[C@H](CC(C)C)NC(=O)[C@H](CC(=O)O)NC(=O)[C@H](CO)NC(=O)[C@@H](NC(=O)[C@H](Cc1ccccc1)NC(=O)[C@@H](NC(=O)CNC(=O)[C@H](CCC(=O)O)NC(=O)C(C)(C)NC(=O)[C@@H](N)Cc1ccc(O)cc1)[C@@H](C)O)[C@@H](C)O)[C@@H](C)CC)C(=O)N[C@@H](CCC(=O)O)C(=O)N[C@@H](CCCCN)C(=O)N[C@@H](CCCNC(=N)N)C(=O)N[C@@H](C)C(=O)N[C@@H](C)C(=O)N[C@@H](CCC(N)=O)C(=O)N[C@@H](CCC(=O)O)C(=O)N[C@@H](Cc1ccccc1)C(=O)N[C@H](C(=O)N[C@@H](CCC(=O)O)C(=O)N[C@@H](Cc1c[nH]c2ccccc12)C(=O)N[C@@H](CC(C)C)C(=O)N[C@@H](CCCCN)C(=O)N[C@@H](CC(N)=O)C(=O)N[C@H](C(=O)NCC(=O)N1CCC[C@H]1C(=O)N[C@@H](CO)C(=O)N[C@@H](CO)C(=O)NCC(=O)N[C@@H](C)C(=O)N1CCC[C@H]1C(=O)N1CCC[C@H]1C(=O)N1CCC[C@H]1C(=O)N[C@@H](CO)C(N)=O)[C@@H](C)O)[C@@H](C)CC)C(=O)O [SEQ ID NO: 19, Y-Aib-E-G-T-F-T-S-D-L-S-I-Q-K(γE-x70)-EKRAAQEFIEWLKNTGPSSGAPPPS-NH2] (H-Y[Aib]EGTFTSDLSIQK([γGlu-Stearoyl])EKRAAQEFIEWLKNTGPSSGAPPPS-NH2)
pEC50 (Table 7, cAMP formation): 11.40

CCCCCCCCCCCCCCCC(=O)N[C@@H](CCC(=O)NCCCC[C@H](NC(=O)[C@H](CCC(N)=O)NC(=O)[C@@H](NC(=O)[C@H](CO)NC(=O)[C@H](CC(C)C)NC(=O)[C@H](CC(=O)O)NC(=O)[C@H](CO)NC(=O)[C@@H](NC(=O)[C@H](Cc1ccccc1)NC(=O)[C@@H](NC(=O)CNC(=O)[C@H](CCC(=O)O)NC(=O)C(C)(C)NC(=O)[C@@H](N)Cc1ccc(O)cc1)[C@@H](C)O)[C@@H](C)O)[C@@H](C)CC)C(=O)N[C@@H](CCC(=O)O)C(=O)N[C@@H](CO)C(=O)N[C@@H](CCCNC(=N)N)C(=O)N[C@@H](C)C(=O)N[C@@H](C)C(=O)N[C@@H](CCC(N)=O)C(=O)N[C@@H](CCC(=O)O)C(=O)N[C@@H](Cc1ccccc1)C(=O)N[C@H](C(=O)N[C@@H](CCC(=O)O)C(=O)N[C@@H](Cc1c[nH]c2ccccc12)C(=O)N[C@@H](CC(C)C)C(=O)N[C@@H](CCCCN)C(=O)N[C@@H](C)C(=O)NCC(=O)NCC(=O)N1CCC[C@H]1C(=O)N[C@@H](CO)C(=O)N[C@@H](CO)C(=O)NCC(=O)N[C@@H](C)C(=O)N1CCC[C@H]1C(=O)N1CCC[C@H]1C(=O)N1CCC[C@H]1C(=O)N[C@@H](CO)C(N)=O)[C@@H](C)CC)C(=O)O [SEQ ID NO: 39, Y-Aib-E-G-T-F-T-S-D-L-S-I-Q-K(γE-x53)-ESRAAQEFIEWLKAGGPSSGAPPPS-NH2] (H-Y[Aib]EGTFTSDLSIQK([γGlu-Palmitoyl])ESRAAQEFIEWLKAGGPSSGAPPPS-NH2)
pEC50 (Table 7, cAMP formation): 11.37

CCCCCCCCCCCCCCCC(=O)N[C@@H](CCC(=O)NCCCC[C@H](NC(=O)[C@H](CCC(N)=O)NC(=O)[C@@H](NC(=O)[C@H](CO)NC(=O)[C@H](CC(C)C)NC(=O)[C@H](CC(=O)O)NC(=O)[C@H](CO)NC(=O)[C@@H](NC(=O)[C@H](Cc1ccccc1)NC(=O)[C@@H](NC(=O)CNC(=O)[C@H](CCC(N)=O)NC(=O)C(C)(C)NC(=O)[C@@H](N)Cc1ccc(O)cc1)[C@@H](C)O)[C@@H](C)O)[C@@H](C)CC)C(=O)N[C@@H](CC(=O)O)C(=O)N[C@@H](CO)C(=O)N[C@@H](CCCNC(=N)N)C(=O)N[C@@H](C)C(=O)N[C@@H](C)C(=O)N[C@@H](CCC(N)=O)C(=O)N[C@@H](CCC(=O)O)C(=O)N[C@@H](Cc1ccccc1)C(=O)N[C@H](C(=O)N[C@@H](CCC(=O)O)C(=O)N[C@@H](Cc1c[nH]c2ccccc12)C(=O)N[C@@H](CC(C)C)C(=O)N[C@@H](CCCCN)C(=O)N[C@@H](C)C(=O)NCC(=O)NCC(=O)N1CCC[C@H]1C(=O)N[C@@H](CO)C(=O)N[C@@H](CO)C(=O)NCC(=O)N[C@@H](C)C(=O)N1CCC[C@H]1C(=O)N1CCC[C@H]1C(=O)N1CCC[C@H]1C(=O)N[C@@H](CO)C(N)=O)[C@@H](C)CC)C(=O)O [SEQ ID NO: 29, Y-Aib-Q-G-T-F-T-S-D-L-S-I-Q-K(γE-x53)-DSRAAQEFIEWLKAGGPSSGAPPPS-NH2] (H-Y[Aib]QGTFTSDLSIQK([γGlu-Palmitoyl])DSRAAQEFIEWLKAGGPSSGAPPPS-NH2)
pEC50 (Table 7, cAMP formation): 11.15

CCCCCCCCCCCCCCCC(=O)N[C@@H](CCC(=O)NCCCC[C@H](NC(=O)[C@H](CCC(N)=O)NC(=O)[C@@H](NC(=O)[C@H](CO)NC(=O)[C@H](CC(C)C)NC(=O)[C@H](CC(=O)O)NC(=O)[C@H](CO)NC(=O)[C@@H](NC(=O)[C@H](Cc1ccccc1)NC(=O)[C@@H](NC(=O)CNC(=O)[C@H](CCC(=O)O)NC(=O)C(C)(C)NC(=O)[C@@H](N)Cc1ccc(O)cc1)[C@@H](C)O)[C@@H](C)O)[C@@H](C)CC)C(=O)N[C@@H](CCC(=O)O)C(=O)N[C@@H](CO)C(=O)N[C@@H](CCCNC(=N)N)C(=O)N[C@@H](C)C(=O)N[C@@H](C)C(=O)NC(C)(C)C(=O)N[C@@H](CC(=O)O)C(=O)N[C@@H](Cc1ccccc1)C(=O)N[C@H](C(=O)N[C@@H](CCC(=O)O)C(=O)N[C@@H](Cc1c[nH]c2ccccc12)C(=O)N[C@@H](CC(C)C)C(=O)N[C@@H](CCCCN)C(=O)N[C@@H](CC(N)=O)C(=O)N[C@H](C(=O)NCC(=O)N1CCC[C@H]1C(=O)N[C@@H](CO)C(=O)N[C@@H](CO)C(=O)NCC(=O)N[C@@H](C)C(=O)N1CCC[C@H]1C(=O)N1CCC[C@H]1C(=O)N1CCC[C@H]1C(=O)N[C@@H](CO)C(N)=O)[C@@H](C)O)[C@@H](C)CC)C(=O)O [SEQ ID NO: 24, Y-Aib-E-G-T-F-T-S-D-L-S-I-Q-K(γE-x53)-E-S-R-A-A-Aib-D-F-I-E-W-L-K-N-T-G-P-S-S-G-A-P-P-P-S-NH2] (H-Y[Aib]EGTFTSDLSIQK([γGlu-Palmitoyl])ESRAA[Aib]DFIEWLKNTGPSSGAPPPS-NH2)
pEC50 (Table 7, cAMP formation): 10.87
